Measured values from patent US12173026B2, “PRMT5 inhibitors” (Merck Sharp & Dohme LLC, priority 2018, dated 2024).

What follows are molecules tested against T1, PRMT5-MEP50 enzyme complex (Homo sapiens, UniProt O14744) (assay: PRMT5-MEP50 Enzyme Methylation Assay). Conditions: one EC50 shown: 4 parameters single site sigmoidal model; two shown: first EC50 of 7 parameters biphasic model; 1.0 nM PRMT5-MEP50, 75 nM biotinylated H4R3(Me1) peptide, 15 μM SAM; read-out: Enzyme Methylation Assay (EC50 or EC50 1).
T1 construct: Full-length (FL)-PRMT5-MEP50 enzyme complex; made in house; host or cells: baculovirus-transfected Sf21 cells
T1 sequence (O14744 whole entry): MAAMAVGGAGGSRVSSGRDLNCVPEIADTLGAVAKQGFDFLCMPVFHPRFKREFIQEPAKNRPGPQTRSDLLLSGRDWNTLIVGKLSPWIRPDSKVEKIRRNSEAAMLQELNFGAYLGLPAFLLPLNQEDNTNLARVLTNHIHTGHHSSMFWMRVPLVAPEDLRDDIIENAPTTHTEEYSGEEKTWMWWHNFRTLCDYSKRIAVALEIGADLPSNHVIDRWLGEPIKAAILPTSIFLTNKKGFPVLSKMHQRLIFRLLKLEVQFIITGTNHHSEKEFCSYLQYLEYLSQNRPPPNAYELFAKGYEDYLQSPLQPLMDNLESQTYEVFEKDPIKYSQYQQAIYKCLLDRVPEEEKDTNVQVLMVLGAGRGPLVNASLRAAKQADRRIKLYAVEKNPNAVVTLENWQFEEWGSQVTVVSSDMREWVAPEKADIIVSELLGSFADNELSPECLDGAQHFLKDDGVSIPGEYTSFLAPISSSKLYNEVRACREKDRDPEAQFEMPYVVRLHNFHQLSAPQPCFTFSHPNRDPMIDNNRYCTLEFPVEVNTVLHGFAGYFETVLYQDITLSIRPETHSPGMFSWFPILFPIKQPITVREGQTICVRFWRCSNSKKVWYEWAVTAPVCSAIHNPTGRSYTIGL
T1 sequence (Q9BQA1 whole entry partner): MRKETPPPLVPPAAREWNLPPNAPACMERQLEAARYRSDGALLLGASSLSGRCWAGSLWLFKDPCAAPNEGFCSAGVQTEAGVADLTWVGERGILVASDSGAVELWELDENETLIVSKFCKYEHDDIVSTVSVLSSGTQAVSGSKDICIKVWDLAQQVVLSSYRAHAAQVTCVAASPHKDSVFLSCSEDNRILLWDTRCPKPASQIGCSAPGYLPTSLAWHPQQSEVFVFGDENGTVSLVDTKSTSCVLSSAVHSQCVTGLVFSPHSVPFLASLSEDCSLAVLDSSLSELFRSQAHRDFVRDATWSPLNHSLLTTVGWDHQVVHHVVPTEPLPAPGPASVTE
Assay type: biochemical
Procedure: PRMT5-MEP50 Enzyme Methylation Assay
PRMT5-MEP50 biochemical assay is a direct measurement of the methylation activity of the enzyme complex on a short peptide substrate derived from the N-terminus of […]. Methylation experiment is performed with recombinant PRMT5-MEP50 protein complex. The assessment of inhibitory effect of small molecules is measured by the effectiveness of the compounds to inhibit this reaction (EC50).
In this assay, the potency (EC50) of each compound was determined from a twenty-point (1:2 serial dilution; top compound concentration of 100000 nM) titration curve using the following outlined procedure. To each well of a white ProxiPlus 384 well-plate, 100 nL of compound (1% DMSO in final assay volume of 10 μL) was dispensed, followed by the addition of 8 μL of 1× assay buffer (50 mM Bicine pH 8.0, 1 mM DTT, 0.004% Tween20, 0.01% BSA) containing 1.25 nM of Full-length (FL)-PRMT5-MEP50 enzyme complex (recombinant proteins from baculovirus-transfected Sf21 cells: FL-PRMT5; MW=[…] and FL-MEP50; MW=38614) and 1 μL of 150 μM S-(5′-Adenosyl)-L-Methionine Chloride (SAM). Plates were sealed and placed in a 37° C. humidified chamber for a 60 minutes pre-incubation with compound. Subsequently, each reaction was initiated by the addition of 1 μL 1× assay buffer containing 750 nM biotinylated H4R3(Me1) peptide. The final reaction in each well of 10 μL consists of 1.0 nM PRMT5-MEP50, 75 nM biotinylated-peptide, and 15 μM SAM. Methylation reactions proceeded for 150 minutes in a sealed plate at 37° C. Reactions were immediately quenched by the addition of 1 μL of 5% formic acid. Plates were then frozen and shipped to SAMDI™ Tech Inc. to determine the percent conversion from H4R3(Me1) to H4R3(Me2). Dose-response curves were generated by plotting percent effect (% product conversion; Y-axis) vs. Log 10 compound concentrations (X-axis). EC50 values were determined by non-linear regression according to models for either sigmoidal (4 parameters) or biphasic (7 parameters) dose-response curves.
`Nc1nc2cc(C[C@@H]3CC[C@@]4(O)[C@@H]3O[C@@H](n3cc(C5CC5)c5c(N)ncnc53)[C@@H]4O)ccc2cc1F` [Example 50] gave an EC50 of 0.3 nM.
`Nc1nc2cc(O[C@H]3CC[C@@]4(O)[C@@H]3O[C@@H](n3ccc5c(C(F)F)ncnc53)[C@@H]4O)ccc2cc1Br` [Example 79, (2R,3R,3aS,6S,6aR)-6-((2-amino-3-bromoquinolin-7-yl)oxy)-2-(4-(difluoromethyl)-7H-pyrrolo[2,3-d]pyrimidin-7-yl)hexabodro-3aH-cyclopenta[b]furan-3,3a-diol] gave an EC50 of 2.9 nM.
`Nc1nc2cc(CCC3(CF)C[C@@H](n4ccc5c(N)ncnc54)[C@H](O)[C@@H]3O)ccc2cc1Br` (some centres unmarked) [Example 102] was tested, and the EC50 was 0.3 nM.

Each molecule was assayed on symmetric dimethylation of arginine (SDMA) of PRMT5 substrates in MCF-7 cells (assay: PRMT5 Cell Target Engagement (TE) Assay). Conditions: Homo sapiens, MCF7, 72 h; MCF-7 cells treated for 3 days; nuclear SDMA by high content imaging; top concentration 10000 nM.
Assay type: cell-based
Outline: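 MCF-7 cells treated 3 days at 37 °C with 10-point 1:3 titration from 10000 nM top. Fixed cells stained with anti-SDMA antibody plus Alexa488 secondary and Hoechst; nuclear fluorescence quantified by high-content imaging versus DMSO wells. EC50 from 4-parameter fit of percent fluorescence vs log concentration.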
In the case of `Nc1nc2cc(C[C@@H]3CC[C@@]4(O)[C@@H]3O[C@@H](n3ccc5c(N)ncnc53)[C@@H]4O)ccc2cc1F` [Example 124, (2R,3R,3aS,6S,6 aR)-6-((2-amino-3-fluoroquinolin-7-yl)methyl)-2-(4-amino-7H-pyrrolo[2,3-d]pyrimidin-7-yl)hexahydro-3aH-cyclopenta[b]furan-3,3a-diol], the EC50 is reported as 2.3 nM.
Work on `Cc1cc2ccc(C[C@@H]3CC[C@@]4(O)[C@@H]3O[C@@H](n3ccc5c(N)ncnc53)[C@@H]4O)cc2nc1N` [Example 125, (2R,3R,3aS,6S,6aR)-6-((2-amino-3-methylquinolin-7-yl)methyl)-2-(4-amino-7H-pyrrolo[2,3-d]pyrimidin-7-yl)hexahydro-3aH-cyclopenta[b]furan-3,3a-diol] yielded an EC50 of 0.7 nM.
Work on `C[C@]1(CCc2ccc3cc4c(nc3c2)NCC4)C[C@@H](n2ccc3c(N)ncnc32)[C@H](O)[C@@H]1O` [Example 126, (1S,2R,3S,5R)-5-(4-amino-7H-pyrrolo[2,3-d]pyrimidin-7-yl)-3-(2-(2,3-dihydro-1H-pyrrolo[2,3-b]quinolin-7-yl)ethyl)-3-methylcyclopentane-1,2-diol] yielded an EC50 of 2.9 nM.
Work on `Cc1nc(N)nc2c1ccn2[C@@H]1O[C@@H]2[C@H](Cc3ccc4cc(Br)c(N)nc4c3)CC[C@]2(O)[C@H]1O` [Example 127, (2R,3R,3aS,6S,6aR)-6-((2-amino-3-bromoquinolin-7-yl)methyl)-2-(2-amino-4-methyl-7-pyrrolo[2,3-d]pyrimidin-7-yl)hexahydro-3aH-cyclopenta[b]furan-3,3a-diol] yielded an EC50 of 0.8 nM.
For `Nc1nc2cc(O[C@H]3CC[C@@]4(O)[C@@H]3O[C@@H](n3ccc5c(N)ncnc53)[C@@H]4O)ccc2cc1C(F)F` [Example 128, (2R,3R,3aS,6S,6aR)-6-((2-amino-3-(difluoromethyl)quinolin-7-yl)oxy)-2-(4-amino-7H-pyrrolo[2,3-d]pyrimidin-7-yl)hexahydro-3aH-cyclopenta[b]furan-3,3a-diol], the EC50 was 15.5 nM.
`Cc1ncnc2c1ccn2[C@@H]1O[C@@H]2[C@H](Oc3ccc4cc(Br)c(N)nc4c3)CC[C@]2(O)[C@H]1O` [Example 129, (2R,3R,3aS,6R,6aR)-6-((2-amino-3-bromoquinolin-7-yl)oxy)-2-(4-methyl-7H-pyrrolo[2,3-d]pyrimidin-7-yl)hexahydro-3aH-cyclopenta[b]furan-3,3a-diol] was tested, and the EC50 was 10000 nM.
For `Nc1ncc2c(F)cn([C@@H]3O[C@@H]4[C@@H](Oc5ccc6cc(Br)c(N)nc6c5)CC[C@]4(O)[C@H]3O)c2n1` [Example 130, (2R,3R,3aS,6S,6aR)-6-((2-amino-3-bromoquinolin-7-yl)oxy)-2-(2-amino-5-fluoro-7H-pyrrolo[2,3-d]pyrimidin-7-yl)hexahydro-3aH-cyclopenta[b]furan-3,3a-diol], the EC50 was 135 nM.
`Cc1ncnc2c1ccn2[C@@H]1O[C@@H]2[C@@H](Cc3ccc4cc(Cl)c(N)nc4c3)CC[C@]2(O)[C@H]1O` [Example 131, (2R,3R,3aS,6R,6aR)-6-((2-amino-3-chloroquinolin-7-yl)methyl)-2-(4-methyl-7H-pyrrolo[2,3-d]pyrimidin-7-yl)hexahydro-3aH-cyclopenta[b]furan-3,3a-diol] gave an EC50 of 21.3 nM.
For `Nc1nc2cc(CC3OC[C@@]4(O)C3C[C@@H](n3ccc5c(N)ncnc53)[C@@H]4O)ccc2cc1Br` (some centres unmarked) [Example 132], the EC50 was 236 nM.
`Cc1ncnc2c1ccn2[C@@H]1O[C@@H]2[C@H](Cc3ccc4cc(Br)c(N)nc4c3)OC[C@]2(O)[C@H]1O` [Example 133] gave an EC50 of 2.7 nM.
`Cc1ncnc2c1ccn2[C@@H]1O[C@@H]2[C@@H](Cc3ccc4cc(Br)c(N)nc4c3)OC[C@]2(O)[C@H]1O` [Example 134, (2R,3R,3aS,6R,6aR)-6-((2-amino-3-bromoquinolin-7-yl)methyl)-2-(4-methyl-7H-pyrrolo[2,3-d]pyrimidin-7-yl)tetrahydrofuro[3,4-b]furan-3,3a(4H)-diol] showed an EC50 of 35.8 nM.
`Cc1cn([C@@H]2O[C@@H]3[C@H](Cc4ccc5cc(Br)c(N)nc5c4)OC[C@]3(O)[C@H]2O)c2ncnc(N)c12` [Example 135, (2R,3R,3aS,6S,6aR)-6-((2-amino-3-bromoquinolin-7-yl)methyl)-2-(4-amino-5-methyl-7H-pyrrolo[2,3-d]pyrimidin-7-yl)tetrahydrofuro[3,4-b]furan-3,3a(4H)-diol] showed an EC50 of 0.6 nM.
In the case of `Nc1nc2cc(C[C@@H]3OC[C@@]4(O)[C@@H]3O[C@@H](n3ccc5c(N)ncnc53)[C@@H]4O)ccc2cc1Br` [Example 136, (2R,3R,3aS,6S,6aR)-6-((2-amino-3-bromoquinolin-7-yl)methyl)-2-(4-amino-7H-pyrrolo[2,3-d]pyrimidin-7-yl)tetrahydrofuro[3,4-b]furan-3,3a(4H)-diol], the EC50 is reported as 0.4 nM.
For `Nc1nc2cc(C[C@@H]3CC[C@@]4(O)[C@@H]3O[C@@H](n3ccc5c(N)ncnc53)[C@@H]4O)ccc2cc1C(F)F` [Example 137, (2R,3R,3aS,6S,6aR)-6-((2-amino-3-(difluoromethyl)quinolin-7-yl)methyl)-2-(4-amino-7H-pyrrolo[2,3-d]pyrimidin-7-yl)hexahydro-2H-cyclopenta[b]furan-3,3a-diol], the EC50 was 0.8 nM.

Same assay, conditions: MCF-7 cells treated for 3 days; nuclear SDMA by high content imaging; top concentration 10000 nM
For `Nc1nc2cc(C[C@@H]3CC[C@@]4(O)[C@@H]3O[C@@H](n3cc(C5CC5)c5c(N)ncnc53)[C@@H]4O)ccc2cc1F` [Example 50], the EC50 was 0.7 nM.
For `Nc1nc2cc(O[C@H]3CC[C@@]4(O)[C@@H]3O[C@@H](n3ccc5c(C(F)F)ncnc53)[C@@H]4O)ccc2cc1Br` [Example 79, (2R,3R,3aS,6S,6aR)-6-((2-amino-3-bromoquinolin-7-yl)oxy)-2-(4-(difluoromethyl)-7H-pyrrolo[2,3-d]pyrimidin-7-yl)hexabodro-3aH-cyclopenta[b]furan-3,3a-diol], the EC50 was 52.5 nM.
In the case of `Nc1nc2cc(CCC3(CF)C[C@@H](n4ccc5c(N)ncnc54)[C@H](O)[C@@H]3O)ccc2cc1Br` (some centres unmarked) [Example 102], the EC50 is reported as 2 nM.
